Experimental data from patent US8192962B2, “Processes for detecting toxic substances” (Daikin Industries, Ltd., priority 2001, dated 2012).

Test system: Energy system protein genes
Test: DNA chip mRNA expression in yeast, energy system protein genes (Table 4)
Assay type: cell-based, Saccharomyces cerevisiae S288C
Method in brief: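 Values are treated/untreated fluorescence ratios from a whole-genome yeast DNA chip hybridized over 12 hours at 65° C with Cy3- or Cy5-labelled cDNA from poly(A) mRNA. Log-phase S288C yeast in YPD at 25° C had received a single toxic chemical for two hours, dosed to slow growth without killing.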

**Q.** How did the “The level of expressed mRNA in the presence of chemical substance/The level of expressed mRNA in the absence of chemical substance” value (yeast gene YAL060W) turn out when `C=CC=O` [(14), acrolein] was run?
**A.** Its value is 0.9.

**Q.** And the “The level of expressed mRNA in the presence of chemical substance/The level of expressed mRNA in the absence of chemical substance” value (yeast gene YBL058W, cells incubated two hours with the chemical substance)?
**A.** The value was 1.3.

**Q.** What about the “The level of expressed mRNA in the presence of chemical substance/The level of expressed mRNA in the absence of chemical substance” value (yeast gene YBL099W, cells incubated two hours with the chemical substance) of the same compound?
**A.** The value was 0.6.

**Q.** What about the “The level of expressed mRNA in the presence of chemical substance/The level of expressed mRNA in the absence of chemical substance” value (yeast gene YBR001C, cells incubated two hours with the chemical substance) of the same compound?
**A.** The value was 1.2.

**Q.** And the “The level of expressed mRNA in the presence of chemical substance/The level of expressed mRNA in the absence of chemical substance” value (yeast gene YBR185C, cells incubated two hours with the chemical substance)?
**A.** Its value is 1.7.

**Q.** And the “The level of expressed mRNA in the presence of chemical substance/The level of expressed mRNA in the absence of chemical substance” value (yeast gene YBR221C, cells incubated two hours with the chemical substance)?
**A.** The value was 0.8.

**Q.** What about the “The level of expressed mRNA in the presence of chemical substance/The level of expressed mRNA in the absence of chemical substance” value (yeast gene YBR299W) of the same compound?
**A.** The value was 1.4.

**Q.** And the “The level of expressed mRNA in the presence of chemical substance/The level of expressed mRNA in the absence of chemical substance” value (yeast gene YCL040W)?
**A.** Its value is 0.7.

**Q.** What about the “The level of expressed mRNA in the presence of chemical substance/The level of expressed mRNA in the absence of chemical substance” value (yeast gene YCR012W) of the same compound?
**A.** The value was 0.9.

**Q.** What about the “The level of expressed mRNA in the presence of chemical substance/The level of expressed mRNA in the absence of chemical substance” value (yeast gene YCR046C, cells incubated two hours with the chemical substance) of the same compound?
**A.** Its value is 1.3.

**Q.** And the “The level of expressed mRNA in the presence of chemical substance/The level of expressed mRNA in the absence of chemical substance” value (yeast gene YCR105W, cells incubated two hours with the chemical substance)?
**A.** Its value is 1.9.

**Q.** What about the “The level of expressed mRNA in the presence of chemical substance/The level of expressed mRNA in the absence of chemical substance” value (yeast gene YDL021W) of the same compound?
**A.** The value was 3.7.

**Q.** And the “The level of expressed mRNA in the presence of chemical substance/The level of expressed mRNA in the absence of chemical substance” value (yeast gene YDL067C, cells incubated two hours with the chemical substance)?
**A.** Its value is 1.4.

**Q.** And the “The level of expressed mRNA in the presence of chemical substance/The level of expressed mRNA in the absence of chemical substance” value (yeast gene YDL078C, cells incubated two hours with the chemical substance)?
**A.** The value was 0.8.

**Q.** What about the “The level of expressed mRNA in the presence of chemical substance/The level of expressed mRNA in the absence of chemical substance” value (yeast gene YDL107W, cells incubated two hours with the chemical substance) of the same compound?
**A.** The value was 1.5.

**Q.** And the “The level of expressed mRNA in the presence of chemical substance/The level of expressed mRNA in the absence of chemical substance” value (yeast gene YDL174C)?
**A.** Its value is 1.1.

**Q.** What about the “The level of expressed mRNA in the presence of chemical substance/The level of expressed mRNA in the absence of chemical substance” value (yeast gene YDL181W, cells incubated two hours with the chemical substance) of the same compound?
**A.** The value was 1.1.

**Q.** And the “The level of expressed mRNA in the presence of chemical substance/The level of expressed mRNA in the absence of chemical substance” value (yeast gene YDR001C)?
**A.** Its value is 1.0.

**Q.** And the “The level of expressed mRNA in the presence of chemical substance/The level of expressed mRNA in the absence of chemical substance” value (yeast gene YDR050C, cells incubated two hours with the chemical substance)?
**A.** Its value is 1.2.

**Q.** What about the “The level of expressed mRNA in the presence of chemical substance/The level of expressed mRNA in the absence of chemical substance” value (yeast gene YDR079W, cells incubated two hours with the chemical substance) of the same compound?
**A.** The value was 1.5.

**Q.** And the “The level of expressed mRNA in the presence of chemical substance/The level of expressed mRNA in the absence of chemical substance” value (yeast gene YDR178W, cells incubated two hours with the chemical substance)?
**A.** Its value is 1.5.

**Q.** And the “The level of expressed mRNA in the presence of chemical substance/The level of expressed mRNA in the absence of chemical substance” value (yeast gene YDR231C)?
**A.** The value was 1.5.

**Q.** And the “The level of expressed mRNA in the presence of chemical substance/The level of expressed mRNA in the absence of chemical substance” value (yeast gene YDR298C, cells incubated two hours with the chemical substance)?
**A.** Its value is 1.5.

**Q.** What about the “The level of expressed mRNA in the presence of chemical substance/The level of expressed mRNA in the absence of chemical substance” value (yeast gene YDR377W, cells incubated two hours with the chemical substance) of the same compound?
**A.** The value was 1.4.

**Q.** And the “The level of expressed mRNA in the presence of chemical substance/The level of expressed mRNA in the absence of chemical substance” value (yeast gene YDR529C, cells incubated two hours with the chemical substance)?
**A.** Its value is 1.5.

**Q.** What about the “The level of expressed mRNA in the presence of chemical substance/The level of expressed mRNA in the absence of chemical substance” value (yeast gene YEL024W, cells incubated two hours with the chemical substance) of the same compound?
**A.** Its value is 1.1.

**Q.** And the “The level of expressed mRNA in the presence of chemical substance/The level of expressed mRNA in the absence of chemical substance” value (yeast gene YEL039C, cells incubated two hours with the chemical substance)?
**A.** Its value is 1.4.

**Q.** And the “The level of expressed mRNA in the presence of chemical substance/The level of expressed mRNA in the absence of chemical substance” value (yeast gene YER178W)?
**A.** The value was 0.9.

**Q.** What about the “The level of expressed mRNA in the presence of chemical substance/The level of expressed mRNA in the absence of chemical substance” value (yeast gene YFL057C) of the same compound?
**A.** Its value is 23.4.

**Q.** What about the “The level of expressed mRNA in the presence of chemical substance/The level of expressed mRNA in the absence of chemical substance” value (yeast gene YFR053C) of the same compound?
**A.** The value was 0.6.

**Q.** And the “The level of expressed mRNA in the presence of chemical substance/The level of expressed mRNA in the absence of chemical substance” value (yeast gene YGL018C, cells incubated two hours with the chemical substance)?
**A.** Its value is 1.2.

**Q.** What about the “The level of expressed mRNA in the presence of chemical substance/The level of expressed mRNA in the absence of chemical substance” value (yeast gene YGL062W) of the same compound?
**A.** Its value is 1.2.

**Q.** And the “The level of expressed mRNA in the presence of chemical substance/The level of expressed mRNA in the absence of chemical substance” value (yeast gene YGL187C, cells incubated two hours with the chemical substance)?
**A.** The value was 0.9.

**Q.** And the “The level of expressed mRNA in the presence of chemical substance/The level of expressed mRNA in the absence of chemical substance” value (yeast gene YGL191W, cells incubated two hours with the chemical substance)?
**A.** Its value is 1.6.

**Q.** And the “The level of expressed mRNA in the presence of chemical substance/The level of expressed mRNA in the absence of chemical substance” value (yeast gene YGL205W, cells incubated two hours with the chemical substance)?
**A.** The value was 1.0.

**Q.** And the “The level of expressed mRNA in the presence of chemical substance/The level of expressed mRNA in the absence of chemical substance” value (yeast gene YGL256W, cells incubated two hours with the chemical substance)?
**A.** The value was 0.9.

**Q.** What about the “The level of expressed mRNA in the presence of chemical substance/The level of expressed mRNA in the absence of chemical substance” value (yeast gene YGR043C) of the same compound?
**A.** The value was 4.1.

**Q.** And the “The level of expressed mRNA in the presence of chemical substance/The level of expressed mRNA in the absence of chemical substance” value (yeast gene YGR062C, cells incubated two hours with the chemical substance, 25° C., YPD medium)?
**A.** The value was 1.2.

**Q.** What about the “The level of expressed mRNA in the presence of chemical substance/The level of expressed mRNA in the absence of chemical substance” value (yeast gene YGR087C, cells incubated two hours with the chemical substance) of the same compound?
**A.** Its value is 0.7.

**Q.** What about the “The level of expressed mRNA in the presence of chemical substance/The level of expressed mRNA in the absence of chemical substance” value (yeast gene YGR174C, cells incubated two hours with the chemical substance) of the same compound?
**A.** Its value is 1.6.

**Q.** And the “The level of expressed mRNA in the presence of chemical substance/The level of expressed mRNA in the absence of chemical substance” value (yeast gene YGR192C)?
**A.** Its value is 1.0.

**Q.** What about the “The level of expressed mRNA in the presence of chemical substance/The level of expressed mRNA in the absence of chemical substance” value (yeast gene YGR244C) of the same compound?
**A.** Its value is 1.2.

**Q.** And the “The level of expressed mRNA in the presence of chemical substance/The level of expressed mRNA in the absence of chemical substance” value (yeast gene YGR254W)?
**A.** Its value is 0.6.

**Q.** What about the “The level of expressed mRNA in the presence of chemical substance/The level of expressed mRNA in the absence of chemical substance” value (yeast gene YHR179W) of the same compound?
**A.** Its value is 5.8.

**Q.** And the “The level of expressed mRNA in the presence of chemical substance/The level of expressed mRNA in the absence of chemical substance” value (yeast gene YIL160C)?
**A.** Its value is 1.5.

**Q.** And the “The level of expressed mRNA in the presence of chemical substance/The level of expressed mRNA in the absence of chemical substance” value (yeast gene YIR031C, cells incubated two hours with the chemical substance)?
**A.** The value was 1.2.

**Q.** And the “The level of expressed mRNA in the presence of chemical substance/The level of expressed mRNA in the absence of chemical substance” value (yeast gene YJL052W)?
**A.** The value was 1.3.

**Q.** What about the “The level of expressed mRNA in the presence of chemical substance/The level of expressed mRNA in the absence of chemical substance” value (yeast gene YJL121C, cells incubated two hours with the chemical substance) of the same compound?
**A.** The value was 0.9.

**Q.** And the “The level of expressed mRNA in the presence of chemical substance/The level of expressed mRNA in the absence of chemical substance” value (yeast gene YJL166W, cells incubated two hours with the chemical substance)?
**A.** Its value is 1.9.

**Q.** What about the “The level of expressed mRNA in the presence of chemical substance/The level of expressed mRNA in the absence of chemical substance” value (yeast gene YJL216C, cells incubated two hours with the chemical substance) of the same compound?
**A.** Its value is 1.1.

**Q.** What about the “The level of expressed mRNA in the presence of chemical substance/The level of expressed mRNA in the absence of chemical substance” value (yeast gene YJR009C) of the same compound?
**A.** The value was 1.0.
